Literature values as cited in article PMC3433420 (PLoS ONE, 2012).
Read-outs that look alike come from different tables or passages of the source.

Molecular target: SH2 and PTB domains
Settings: cited from earlier work
Excerpt: Supplement pone.0044471.s022.xlsx, sheet "Most recent PM interactions" | column: Kd || Supplement pone.0044471.s022.xlsx, sheet "All original PM interactions" | column: Kd

[1] = protein ABL2, ref Jones et al. 2006 / Kaushansky et al. Mol Biosys 2008 / Kaushansky et al. Chem and Biol 2008
[2] = protein BLK, ref Jones et al. 2006 / Kaushansky et al. Mol Biosys 2008 / Kaushansky et al. Chem and Biol 2008
[3] = protein GRB10, ref Jones et al. 2006 / Kaushansky et al. Mol Biosys 2008 / Kaushansky et al. Chem and Biol 2008
[4] = protein ITK, ref Jones et al. 2006 / Kaushansky et al. Mol Biosys 2008 / Kaushansky et al. Chem and Biol 2008
[5] = protein PIK3R1-NC, ref Jones et al. 2006 / Kaushansky et al. Mol Biosys 2008 / Kaushansky et al. Chem and Biol 2008
[6] = protein PIK3R3-NC, ref Jones et al. 2006 / Kaushansky et al. Mol Biosys 2008 / Kaushansky et al. Chem and Biol 2008
[7] = protein RASA1-N, ref Jones et al. 2006 / Kaushansky et al. Mol Biosys 2008 / Kaushansky et al. Chem and Biol 2008
[8] = protein RASA1-NC, ref Jones et al. 2006 / Kaushansky et al. Mol Biosys 2008 / Kaushansky et al. Chem and Biol 2008
[9] = protein SH2B3, ref Jones et al. 2006 / Kaushansky et al. Mol Biosys 2008 / Kaushansky et al. Chem and Biol 2008
[10] = protein SH2B, ref Jones et al. 2006 / Kaushansky et al. Mol Biosys 2008 / Kaushansky et al. Chem and Biol 2008
[11] = protein SH2D3C, ref Jones et al. 2006 / Kaushansky et al. Mol Biosys 2008 / Kaushansky et al. Chem and Biol 2008
[12] = protein SHC1-PTB, ref Jones et al. 2006 / Kaushansky et al. Mol Biosys 2008 / Kaushansky et al. Chem and Biol 2008
[13] = protein SHC2-PTB, ref Jones et al. 2006 / Kaushansky et al. Mol Biosys 2008 / Kaushansky et al. Chem and Biol 2008
[14] = protein SLA, ref Jones et al. 2006 / Kaushansky et al. Mol Biosys 2008 / Kaushansky et al. Chem and Biol 2008
[15] = protein SRC, ref Jones et al. 2006 / Kaushansky et al. Mol Biosys 2008 / Kaushansky et al. Chem and Biol 2008
[16] = protein SYK-NC, ref Jones et al. 2006 / Kaushansky et al. Mol Biosys 2008 / Kaushansky et al. Chem and Biol 2008
[17] = protein TNS4, ref Jones et al. 2006 / Kaushansky et al. Mol Biosys 2008 / Kaushansky et al. Chem and Biol 2008
[18] = protein YES1, ref Jones et al. 2006 / Kaushansky et al. Mol Biosys 2008 / Kaushansky et al. Chem and Biol 2008
[19] = protein ABL2, ref Jones et al. 2006 / Kaushansky et al. Chem and Biol 2008
[20] = protein SHC1-PTB, ref Jones et al. 2006 / Kaushansky et al. Chem and Biol 2008

## DNPDpYQQDFFPKd [ErbB1 pY1172, N-terminally rhodamine-labeled 13-mer phosphopeptide]
[1]
  Kd: 490 nM
Protein BCAR3, ref Jones et al. 2006 / Kaushansky et al. Mol Biosys 2008 / Kaushansky et al. Chem and Biol 2008
  Kd: 300 nM
[2]
  Kd: 750 nM
Protein CRK, ref Jones et al. 2006 / Kaushansky et al. Mol Biosys 2008 / Kaushansky et al. Chem and Biol 2008
  Kd: 410 nM
Protein FGR, ref Jones et al. 2006 / Kaushansky et al. Mol Biosys 2008 / Kaushansky et al. Chem and Biol 2008
  Kd: 550 nM
[3]
  Kd: 1290 nM
Protein GRB14, ref Jones et al. 2006 / Kaushansky et al. Mol Biosys 2008 / Kaushansky et al. Chem and Biol 2008
  Kd: 1250 nM
[4]
  Kd: 1410 nM
Protein LYN, ref Jones et al. 2006 / Kaushansky et al. Mol Biosys 2008 / Kaushansky et al. Chem and Biol 2008
  Kd: 1590 nM
Protein NCK2, ref Jones et al. 2006 / Kaushansky et al. Mol Biosys 2008 / Kaushansky et al. Chem and Biol 2008
  Kd: 380 nM
Protein PIK3R1-N, ref Jones et al. 2006 / Kaushansky et al. Mol Biosys 2008 / Kaushansky et al. Chem and Biol 2008
  Kd: 400 nM
[5]
  Kd: 550 nM
Protein PIK3R2-N, ref Jones et al. 2006 / Kaushansky et al. Mol Biosys 2008 / Kaushansky et al. Chem and Biol 2008
  Kd: 390 nM
Protein PIK3R2-NC, ref Jones et al. 2006 / Kaushansky et al. Mol Biosys 2008 / Kaushansky et al. Chem and Biol 2008
  Kd: 320 nM
[6]
  Kd: 850 nM
Protein PLCG2-N, ref Jones et al. 2006 / Kaushansky et al. Mol Biosys 2008 / Kaushansky et al. Chem and Biol 2008
  Kd: 840 nM
Protein PLCG2-NC, ref Jones et al. 2006 / Kaushansky et al. Mol Biosys 2008 / Kaushansky et al. Chem and Biol 2008
  Kd: 670 nM
[7]
  Kd: 1140 nM
[8]
  Kd: 1170 nM
[9]
  Kd: 1600 nM
[10]
  Kd: 1820 nM
[11]
  Kd: 1910 nM
Protein SHB, ref Jones et al. 2006 / Kaushansky et al. Mol Biosys 2008 / Kaushansky et al. Chem and Biol 2008
  Kd: 1790 nM
[12]
  Kd: 40 nM
[13]
  Kd: 1310 nM
[14]
  Kd: 2000 nM
[15]
  Kd: 470 nM
Protein SUPT6H, ref Jones et al. 2006 / Kaushansky et al. Mol Biosys 2008 / Kaushansky et al. Chem and Biol 2008
  Kd: 1030 nM
Protein SYK-C, ref Jones et al. 2006 / Kaushansky et al. Mol Biosys 2008 / Kaushansky et al. Chem and Biol 2008
  Kd: 870 nM
[16]
  Kd: 1280 nM
Protein TNS3, ref Jones et al. 2006 / Kaushansky et al. Mol Biosys 2008 / Kaushansky et al. Chem and Biol 2008
  Kd: 740 nM
[17]
  Kd: 330 nM
Protein VAV2, ref Jones et al. 2006 / Kaushansky et al. Mol Biosys 2008 / Kaushansky et al. Chem and Biol 2008
  Kd: 220 nM
Protein VAV3, ref Jones et al. 2006 / Kaushansky et al. Mol Biosys 2008 / Kaushansky et al. Chem and Biol 2008
  Kd: 2000 nM
[18]
  Kd: 100 nM

## DNPDpYWHSRLFPd [ErbB3 pY1328, N-terminally rhodamine-labeled 13-mer phosphopeptide]
[19]
  Kd: 600 nM
Protein HSH2D, ref Jones et al. 2006 / Kaushansky et al. Chem and Biol 2008
  Kd: 1700 nM
Protein MATK, ref Jones et al. 2006 / Kaushansky et al. Chem and Biol 2008
  Kd: 1870 nM
Protein NCK2, ref Jones et al. 2006 / Kaushansky et al. Chem and Biol 2008
  Kd: 1900 nM
Protein RASA1-NC, ref Jones et al. 2006 / Kaushansky et al. Chem and Biol 2008
  Kd: 1920 nM
[20]
  Kd: 220 nM
Protein SYK-NC, ref Jones et al. 2006 / Kaushansky et al. Chem and Biol 2008
  Kd: 1980 nM
Protein TENC1, ref Jones et al. 2006 / Kaushansky et al. Chem and Biol 2008
  Kd: 1250 nM
Protein TNS4, ref Jones et al. 2006 / Kaushansky et al. Chem and Biol 2008
  Kd: 850 nM

## DNPDpYWNHSLPPd [ErbB4 pY1242, N-terminally rhodamine-labeled 13-mer phosphopeptide]
Protein ABL2, ref Kaushansky et al. Chem and Biol 2008
  Kd: 34 nM
Protein SHC1-PTB, ref Kaushansky et al. Chem and Biol 2008
  Kd: 510 nM

## DNPEpYHNASNGPd [ErbB4 pY1188, N-terminally rhodamine-labeled 13-mer phosphopeptide]
Protein ABL1, all original PM interactions, ref Jones et al. 2006 / Kaushansky et al. Chem and Biol 2008
  Kd: 1820 nM
Protein ABL2, all original PM interactions, ref Jones et al. 2006 / Kaushansky et al. Chem and Biol 2008
  Kd: 760 nM
[19]
  Kd: 35 nM
Protein NCK2, all original PM interactions, ref Jones et al. 2006 / Kaushansky et al. Chem and Biol 2008
  Kd: 2000 nM
Protein PIK3R3-NC, all original PM interactions, ref Jones et al. 2006 / Kaushansky et al. Chem and Biol 2008
  Kd: 2000 nM
Protein SHC1-PTB, all original PM interactions, ref Jones et al. 2006 / Kaushansky et al. Chem and Biol 2008
  Kd: 280 nM
[20]
  Kd: 720 nM

## DSNFpYRALMDEEd [ErbB1 pY998, N-terminally rhodamine-labeled 13-mer phosphopeptide]
[1]
  Kd: 2000 nM
[2]
  Kd: 190 nM
Protein FES, ref Jones et al. 2006 / Kaushansky et al. Mol Biosys 2008 / Kaushansky et al. Chem and Biol 2008
  Kd: 1230 nM
[3]
  Kd: 2000 nM
[4]
  Kd: 280 nM
Protein LCK, ref Jones et al. 2006 / Kaushansky et al. Mol Biosys 2008 / Kaushansky et al. Chem and Biol 2008
  Kd: 2000 nM
[5]
  Kd: 240 nM
[6]
  Kd: 970 nM
Protein PTPN6-NC, ref Jones et al. 2006 / Kaushansky et al. Mol Biosys 2008 / Kaushansky et al. Chem and Biol 2008
  Kd: 2000 nM
[7]
  Kd: 1060 nM
[8]
  Kd: 1380 nM
[9]
  Kd: 1360 nM
[10]
  Kd: 2000 nM
Protein SH2D2A, ref Jones et al. 2006 / Kaushansky et al. Mol Biosys 2008 / Kaushansky et al. Chem and Biol 2008
  Kd: 2000 nM
[11]
  Kd: 2000 nM
[12]
  Kd: 1150 nM
[13]
  Kd: 980 nM
[14]
  Kd: 1600 nM
Protein SOCS1, ref Jones et al. 2006 / Kaushansky et al. Mol Biosys 2008 / Kaushansky et al. Chem and Biol 2008
  Kd: 2000 nM
Protein SOCS2, ref Jones et al. 2006 / Kaushansky et al. Mol Biosys 2008 / Kaushansky et al. Chem and Biol 2008
  Kd: 2000 nM
[15]
  Kd: 1140 nM
[16]
  Kd: 910 nM
[17]
  Kd: 2000 nM
[18]
  Kd: 720 nM
Protein ZAP70-NC, ref Jones et al. 2006 / Kaushansky et al. Mol Biosys 2008 / Kaushansky et al. Chem and Biol 2008
  Kd: 1650 nM

## EDYEpYMNRQRDGd [ErbB3 pY1262, N-terminally rhodamine-labeled 13-mer phosphopeptide]
Protein PIK3R3-NC, original PM interactions, ref Jones et al. 2006 / Kaushansky et al. Chem and Biol 2008
  Kd: 2000 nM
Protein PLCG2-NC, original PM interactions, ref Jones et al. 2006 / Kaushansky et al. Chem and Biol 2008
  Kd: 2000 nM
Protein RASA1-NC, original PM interactions, ref Jones et al. 2006 / Kaushansky et al. Chem and Biol 2008
  Kd: 2000 nM
Protein SLA, original PM interactions, ref Jones et al. 2006 / Kaushansky et al. Chem and Biol 2008
  Kd: 2000 nM
Protein SOCS5, original PM interactions, ref Jones et al. 2006 / Kaushansky et al. Chem and Biol 2008
  Kd: 2000 nM
[19]
  Kd: 1960 nM
Protein RASA1-N, ref Jones et al. 2006 / Kaushansky et al. Chem and Biol 2008
  Kd: 1210 nM

## EEKEpYHAEGGKVd [ErbB1 pY869, N-terminally rhodamine-labeled 13-mer phosphopeptide]
[1]
  Kd: 2000 nM
[2]
  Kd: 1710 nM
